Test results reported in patent publication US20220152154A1, “GROWTH DIFFERENTIATION FACTOR 15 COMBINATION THERAPY” (Amgen Inc., priority 2019, published 2022).

Key:
[1] = Food intake measured three consecutive days per week; type: in vivo; set-up: key: ns: not significant; *: p < 0.05; **: p < 0.005; ***: p < 0.001; ****: p < 0.0001; settings: male C57Bl/6 DIO mice, 2-way ANOVA with Dunnett's analysis
Method: (§1) Male C57Bl/6 DIO mice, 19-20 weeks old (13-14 weeks on high fat diet) at beginning of dosing, were placed into the following treatment groups: Group A—Vehicle, in which the animals were administered vehicle weekly; Group B—Dulaglutide, in which the animals were administered 0.1 mg/kg (2 nmol/kg) of dulaglutide twice per week; Group C—GIPR Ab, in which the animals were administered 5 mg/kg (33 nmol/kg) of antibody 2.63.1 (having a light and heavy chain sequence of SEQ ID NOs: 105 and 106, respectively) weekly and vehicle weekly (the latter being on the alternate dulaglutide dosing day); Group D—GDF15, in which the animals were administered 0.125 mg/kg (1 nmol/kg) of FcΔ10(−)-(G4S)4-GDF15 (SEQ ID NO: 39) (along with its heterodimerization partner, FcΔ10(+,K) (SEQ ID NO: 32)) weekly and vehicle weekly (the latter on the alternate dulaglutide dosing day); Group E—GDF15+Dulaglutide, in which the animals were administered 0.125 mg/kg (1 nmol/kg) of FcΔ10(−)-(G4S)4-GDF15) (along with its heterodimerization partner, FcΔ10(+,K)) weekly and 0.1 mg/kg (2 nmol/kg) of dulaglutide twice per week; Group F—GDF15+GIPR Ab, in which the animals were administered 0.125 mg/kg (1 nmol/kg) of FcΔ10(−)-(G4S)4-GDF15 (along with its heterodimerization partner, FcΔ10(+,K)) weekly and 5 mg/kg (33 nmol/kg) of antibody 2.63.1 weekly. The animals were dosed for 5 weeks with through subcutaneous injection.

[2] = Body weight change in DIO mice treated for 5 weeks; type: in vivo; set-up: key to Significance of Body Weight Change: ns: not significant; *: p < 0.05; **: p < 0.005; ***: p < 0.001; ****: p < 0.0001; settings: subcutaneous; for Significance of Body Weight Change: male C57Bl/6 DIO mice, 2-way ANOVA with Dunnett's analysis
Method: as §1
Body weight was measured twice per week.

dulaglutide [reference compound]
Significance of Food Intake Assay ([1]; D2): ns | Significance of Food Intake Assay ([1]; D8): ns | Significance of Food Intake Assay ([1]; D9): ns | Significance of Food Intake Assay ([1]; D10): ns | Significance of Food Intake Assay ([1]; D15): ns | Significance of Food Intake Assay ([1]; D16): ns | Significance of Food Intake Assay ([1]; D17): * (p < 0.05) | Significance of Food Intake Assay ([1]; D22): **** (p < 0.0001) | Significance of Food Intake Assay ([1]; D23): ns | Significance of Food Intake Assay ([1]; D24): ns | Significance of Food Intake Assay ([1]; D29): ns | Significance of Food Intake Assay ([1]; D30): ns | Significance of Food Intake Assay ([1]; D31): ns | Significance of Body Weight Change ([2]; D0): ns | Significance of Body Weight Change ([2]; D3): ns | Significance of Body Weight Change ([2]; D7): ns | Significance of Body Weight Change ([2]; D10): ** (p < 0.005) | Significance of Body Weight Change ([2]; D14): ** (p < 0.005) | Significance of Body Weight Change ([2]; D17): **** (p < 0.0001) | Significance of Body Weight Change ([2]; D21): *** (p < 0.001) | Significance of Body Weight Change ([2]; D31): *** (p < 0.001) | Significance of Body Weight Change ([2]; D35): *** (p < 0.001) | Significance of Body Weight Change ([2]; D-4): ns | change in body weight ([2]; five weeks after treatment, DIO mice): −1.96%
